# Source: publication PMC11219860, “A chemogenetic approach for dopamine imaging with tunable sensitivity” (Nature Communications, 2024)
# Assays:
# [1] = test system: 5-HT2B; parameters: method as in Svensson et al., 2017; Hao et al., 2019; settings: 10 uM of DETQ; ref Svensson et al., 2017; Hao et al., 2019; cited from earlier work
# [2] = Open field behavior; assay type: in vivo, mouse
# Description: For combined locomotion/photometry experiments in the open field (OF) in tethered mice, a 50 × 50 cm arena was used. Fiber photometry was conducted using a Doric photometry rig combined with a filter/mirror minicube set (Doric Lenses), as above. […] Data were sampled at 122 Hz. […] Mice were habituated to the chamber for 3 consecutive days (30 minutes per day). On experimental days, locomotor activity was video recorded and synchronized with fiber photometry signal recording. The baseline DA signal was recorded for 20 minutes, then the mouse received i.p. injection of vehicle or DETQ (10 mg/kg) in interleaved sessions. Following injection, the DA signal was recorded for an additional 90 minutes. The OF chamber was cleaned with ethanol and water between mice. Recording sessions were repeated at 48 hours intervals. Mouse behavior as well as photometry signals were analyzed with a custom-written MATLAB script. Mouse locomotion was computed using the body center point of the animal. The center zone of the arena was defined automatically during behavior data analysis as the 25 × 25 cm square with the central point aligned to the center of the open field. The distance moved and time spent in the center zone were quantified in 10 minutes time bins and as the total during the 90 minutes after ip injections. To test the dose-dependent effects of DETQ on locomotion in untethered mice, mice were injected i.p. with vehicle, DETQ (3, 10 or 30 mg/kg) or cocaine (20 mg/kg) while their locomotor activity was recorded in an OF arena (60 x 60 cm) for 45 min. Videos were recorded with a Logitech C270 camera and analyzed with DeepLabCut (version 2.1.8.2)[84] on an existing open field network. Representative traces were generated with the Anymaze (v7.2) software (Stoelting Co.).
# [3] = test system: AlloLite-ctr; experiment: In vivo photometry of AlloLite-ctr in NAc; parameters: species or system mouse; settings: DETQ 10 mg/kg
# Description: Fiber photometry combined with optogenetics was conducted using a RZ10X LUX-I/O Processor with integrated LEDs (Tucker-Davis Technologies) combined with a filter/mirror minicube set (FMC6_IE(400-410)_E1(467-497)_F1(507-554)_E2(566-586)_F2(600-680)_S) (Doric Lenses). […] Low-autofluorescence patch cords (400 µm/0.57 NA, Doric) were attached to the optic fibers (400 µm/0.66 NA, Doric) on the mouse’s head to collect fluorescence emissions. Signals were filtered through 500–540 nm GFP emission filters coupled to a photodetector on the RZ10X. […] Data were sampled at 1017.3 Hz. […] For optogenetic stimulation, a 635 nm LED was passed through the 580–680 nm minicube F2 port and reached the mouse through the same unique optic fiber; the LED was driven at 1 to 3 mW. To determine the ‘temporal window for stable imaging’ in the PFC using dLight1.3b recordings, DAT^IREScre mice expressing ChrimsonR in VTA DA axons and dLight1.3b in the PFC were injected i.p. with vehicle at 0 min, followed by DETQ (10 mg/kg) 25 min later. […] DA release was measured with fiber photometry. […] After each injection, NAc DA axons were optically (opto) activated across 3 trials (2 s, 20 Hz, 20-ms pulses) every 5 min and DA released measured with fiber photometry. […] After each injection, NAc DA axons were optically (opto) inhibited (10 s, continuous trials) every 3 min (8 trials/condition) and DA released measured with fiber photometry. […] DA release was measured with fiber photometry.
# For long-term recordings during optogenetic stimulation or chemogenetic inhibition linear fit was calculated across the entire recording or across the vehicle epoch; for event-related experiments fit was performed on fluorescent data obtained in the −60 to +60 s around opto events or −5 to −1 s around behavioral events. […] DA event-related responses were quantified by computing the value at the transient’s peak value and the AUC in the 0 to 10 s or 0 to 60 s period post-event onset. […]
compound,measurement,setting,value
"C[C@H]1c2cccc(C(C)(C)O)c2C[C@H](CO)N1C(=O)Cc1c(Cl)cccc1Cl [DETQ, 2-(2,6-dichlorophenyl)-1-((1S,3R)-3-(hydroxymethyl)-5-(2-hydroxypropan-2-yl)-1-methyl-3,4-dihydroisoquinolin-2(1H)-yl)ethan-1-one]",inhibition of ligand binding,[1],48%
same,total locomotion or time spent in the center,"[2]; tethered mice, DETQ 10 mg/kg",did not observe any effect
same,locomotion in open field,"[2]; untethered mice, 45 min, DETQ 3, 10, 30 mg/kg i.p., cocaine 20 mg/kg",did not have a significant effect
same,increase in baseline signal after DETQ administration,[3],completely absent
same,opto-evoked DA peaks of AlloLite-ctr upon DETQ,[3],retained the same amplitude and kinetics
